Source: the METLIN SMRT retention time set (Domingo-Almenara et al. 2019)

Assay: gradient 5% acetonitrile 3 min, to 50% in 2 min, to 85% in 15 min, held 3 min, 100 µL/min
Settings: column: Zorbax Extend-C18 2.1 x 50 mm; eluents: water / acetonitrile, 0.1% formic acid
Outline: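 The mobile phases were water and acetonitrile, each with 0.1% formic acid, pumped at 100 μL/min through a Zorbax Extend-C18 column (2.1 × 50 mm, 1.8 μm). Pure standards were injected as mixtures of ~100 molecules and detected by a quadrupole time-of-flight mass spectrometer in positive and negative ionization mode. Retention time came from computationally picked adduct peaks, each inspected by hand.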

Compound | RP-LC retention time [s]
COc1cccc(Nc2c(-c3ccccc3)nc3cnccn23)c1 | 828
CCOC(=O)Cn1c(C2CC(=O)N(c3ccc(OC)cc3)C2)nc2ccccc21 (configuration not stated) | 762
CCCCn1cc(S(=O)(=O)Nc2ccc(C)cc2F)c2cccnc21 | 980
OC1(c2ccccn2)CCOC2(CCN(Cc3ccccc3OC(F)(F)F)CC2)C1 (configuration not stated) | 601
COc1ccc(NC(=O)Nc2cccc(-c3ccc(N4CCOCC4)nn3)c2)cc1OC | 586
Cc1ccc2nc(C(=O)NCc3ccc(F)cc3F)cn2c1 | 668
CCn1c(=O)c(N2CCCC(C(=O)N3CCN(c4cccc(OC)c4)CC3)C2)nc2ccccc21 (configuration not stated) | 1100
CCn1cc(C(=O)NCc2cccc(Br)c2)c2cccnc21 | 854
COc1ccc(-c2nc3ccccn3c2Nc2ccc(Cl)cc2)cc1 | 671
COCCN1CCC(CNC(=O)C(=O)Nc2cccc(SC)c2)CC1 | 563
Cc1cc(-c2ccc(C(C)C)c(S(=O)(=O)N3CCN(c4ccccn4)CC3)c2)on1 | 819
CC(C)NC(=O)N1CCC[C@H]1c1nc(-c2ccc(F)cc2)n[nH]1 | 678
CCC(=O)N(CCC1CCOC(C)(C)C1)Cc1ccc(OC)cc1 (configuration not stated) | 896
COc1cccc(-c2nc(-c3ccc4oc(C)nc4c3)no2)c1OC | 1020
CCCC(=O)Nc1ccc(-c2cn3ccc(C)nc3n2)cc1 | 587
CCNC(=O)N1CCOc2cc(C)ccc21 | 768
Cc1ccc(-c2nc(-c3ccc4ncn(C)c4c3)no2)cc1C | 842
O=C(Cn1ccn2nc(-c3ccc(F)cc3)c(CO)c2c1=O)NCc1ccc2c(c1)OCO2 | 778
COc1ccc(OC)c(-c2cn3ccn(-c4ccc(OC)c(Cl)c4)c(=O)c3n2)c1 | 885
COc1ccc(C(=O)NC2CCN(c3cc(-c4cccs4)[nH]n3)C2)cc1F (configuration not stated) | 720
Cc1nc(C#Cc2ccnc(Cl)c2)c(C)n1-c1ccc(OC(F)(F)F)cc1 | 898
Cc1ccc2c(c1)N(CCC(C)C)N=C(C(=O)N1CCCC1)S2(=O)=O | 939
Cc1ccnc(Nc2nc(-c3ccc(F)c(C)c3)cs2)c1 | 906

Compound | RP-LC retention time [s]
COc1cc(OC)c(NC(=O)CN2C(=O)NC(c3ccc(Cl)cc3)C3=C2COC3=O)cc1Cl (configuration not stated) | 858
Cn1c(=O)cnc2ccc(N3CCCC3)nc21 | 884
CN1CCC(CCNC(=O)C2CCc3sc(C(=O)N4CCCC4)cc3C2)CC1 (configuration not stated) | 579
Cc1nn(-c2ccc(Cl)cc2)c(C)c1S(=O)(=O)N1CCC(C(=O)N2CCCC2)CC1 | 868
O=C(NCC(F)(F)F)C1CCN(C(=O)Cc2ccc(Cl)cc2)CC1 | 707
CC1CCN(CCNC(=O)Cn2c(=O)n(-c3ccc(F)cc3)c3ncccc32)CC1 | 614
O=C(C1CCN(c2ncnc3c2oc2ccccc23)CC1)N1CCN(c2ccccc2F)CC1 | 832
Cc1ccc(C)c(CS(=O)(=O)NCCc2cn(CC(C)C)c3ncccc23)c1 | 1070
O=C(CCSc1ccccc1)NCCn1cnc(-c2ccc(F)cc2)cc1=O | 759
Cc1cc2c(cc1S(=O)(=O)N1CCN(c3ccccn3)CC1)n(C)c(=O)n2C | 606
O=C(C1CC(=O)N(c2n[nH]c3cccc(F)c23)C1)N1CCN(c2ccc(Cl)cc2)CC1 (configuration not stated) | 817
N#Cc1ccc(C(=O)N2CCOCCNC(=O)[C@@H]3CCC[C@@H]32)cc1 | 659
Brc1ccc(OCc2nnc3sc(CCc4ccccc4)nn23)cc1 | 1060
Cn1cc(-c2cc3n(n2)CCCN3C(=O)CCC(=O)NCCCN2CCCCC2)c2ccccc21 | 623
Cc1ccc(CSc2nnc3c(S(=O)(=O)N4CCCC4)cccn23)cc1 | 852
CC(C)C(=O)Nc1ccc(CCc2nc3ccc(C(=O)NCc4ccc5c(c4)OCO5)cc3[nH]2)cc1 | 669
Cn1c(=O)sc2cc(S(=O)(=O)N3CCC(C(=O)NCCCc4ccccc4)CC3)ccc21 | 867
CC(=O)NCc1csc(C2CCN(C(=O)COc3ccc(Cl)cc3)CC2)n1 | 708
O=C(Cc1cccs1)NCCS(=O)(=O)N1CCN(c2ncccn2)CC1 | 653
O=C(CC1CCN(C(=O)NC2CCCC2)CC1)N1CCCCC1 | 695
Cc1ccc(-c2nc(Cn3nnc(C(=O)NCc4ccc(C)o4)c3C)c(C)o2)cc1 | 1010
O=C(CSc1ncccn1)NCc1cc(-c2ccc(F)cc2)on1 | 700
O=C(CN1CCC(c2nc(-c3cccs3)no2)CC1)NCc1ccccc1 | 672

Compound | RP-LC retention time [s]
C=CCNC(=O)c1sc(Nc2ccc(Cl)cn2)nc1C | 746
CCOC(=O)N1CCN(c2ncc(S(=O)(=O)c3ccccc3)c(N)n2)CC1 | 821
COCc1cc2nn(CC(=O)N3CCc4ccccc43)c(=O)n2c(-c2ccccc2)n1 | 856
NC(=O)CSc1nnc(CCc2nc3ccccc3s2)o1 | 633
CCCCc1ccc(NC(=O)N2CCCC2c2nncn2C2CCCC2)cc1 (configuration not stated) | 864
CC1CCCCN1S(=O)(=O)c1cc(-c2nnc(C3CCCC3)o2)co1 (configuration not stated) | 1060
COc1ccccc1CNC(=O)c1nnc(-c2ccc(S(=O)(=O)N3CCC(C)CC3)cc2)o1 | 1020
CCNc1cc(N2CCCC(CCC(=O)N3CCCN(c4ncccn4)CC3)C2)ncn1 (configuration not stated) | 608
CCCN1CCN(CCCNC(=O)C2CCCN(S(=O)(=O)c3ccc4c(ccn4C)c3)C2)CC1 (configuration not stated) | 598
COc1ccc(NC(=O)CN2CCc3c(c(=O)c4cc(C)ccc4n3C)C2)cc1 | 599
CCC1CN2C=Nc3oc(C)c(C(=O)Nc4ccccc4OC)c3C2=N1 (configuration not stated) | 668
COc1ccccc1-c1nnc(-c2ccc(Cl)c(S(=O)(=O)N3CCC(C)CC3)c2)o1 | 1190
Cn1cc(C2=CCN(S(=O)(=O)c3cccc(C#N)c3)CC2)c2cccnc21 | 904
COc1ccc(OC)c(-c2nc(Nc3ccc(C)c(Cl)c3)sc2CC(=O)O)c1 | 972
CCNS(=O)(=O)c1cccnc1Nc1ccc(Cl)c(F)c1 | 1090
C=CCN1C(=O)C2(c3ccccc31)c1[nH]c3ccccc3c1CCN2C(C)=O (configuration not stated) | 836
COc1ccc(NC(=O)N2CC(Oc3ccc(-c4nc(-c5ccccc5)no4)cc3)C2)cc1 | 1090
O=C(O)c1cccc2c1CCN2S(=O)(=O)c1ccccc1F | 812
CS(=O)(=O)c1ccc2nc(NC(=O)C3COCC(=O)N3Cc3ccccc3)sc2c1 (configuration not stated) | 649
O=C(CSCc1cnn(-c2ccccc2)c1-n1cccc1)N1CCN(c2ccccn2)CC1 | 690
O=C(NC(c1ccccc1)c1nnc(N2CCCC2)o1)c1cccc(Cl)c1 (configuration not stated) | 867
